Reference: US10507207B2, “Non-nucleosidic inhibitors of reverse transcriptase as antagonists of cell proliferation and inducers of cell differentiation” (ISTITUTO SUPERIORE DI SANITA, priority 2001, dated 2019)

Experiments:
[1] = tested on: endogenous RT activity; experiment: PCR-based functional RT activity assay (MS2 RNA) with F9 lysate; format: biochemical, murine; settings: cell lysate pre-incubated with 100 μM
From the text: FIG. 1: Reverse transcriptase in murine and human cell lines. FIG. 1A. […] Lanes M, DNA molecular weight markers; lane 23, positive control reaction with commercial Rt. FIG. 1B. Western analysis of RT proteins (upper panels) and α-tubulin (lower panels) in WCE and nuclei. WCE were from: F9 (lane 1), NIH/3T3 (lane 2), MCF7 (lane 3), MDA-231 (lane 4), NB4 (lane 5), HL60 (lane 6) and ML2 blasts (lane 7). Nuclear extracts were from: F9 (lane 1), MCF7 (lane 2), MDA-231 (lane 3), NIH 3T3 (lane 4), HL60 (lane 5) and NB4 (lane 6).
The RT enzymatic activity, which is the target of the inhibitors described herein, has been detected in all cell lines, of both murine and human origin, that have been tested in this work using a PCR-based assay. […] The presence of RT enzyme in tumor cells is further confirmed by Western blot analysis.

[2] = tested on: early mouse embryos; experiment: Early mouse embryo cultures from in vitro fertilization (IVF) assays; settings: added to cultures of IVF embryos; preliminary studies
[3] = tested on: murine and human cell lines; experiment: Cell proliferation by cell counting, all cell lines; format: cell-based; settings: 350 μM nevirapine vs DMSO control
Method: Cells were cultured with (dashed line) and without (DMSO, solid line) nevirapine. The proliferation rate is expressed as the ratio of counted cells at the indicated times relative to the initial number of seeded cells, taken as 1. Points represent the mean value and bars the standard deviation from at least three independent assays for all cell types.
(§1) Samples were withdrawn at specific times and cells were counted in nevirapine-exposed and control (DMSO-exposed) cultures. […] Saos-2 osteosarcoma cells were the most slowly responsive type, and only after 5 days of exposure did the growth rate begin to decrease compared to control cultures.

[4] = tested on: F9 teratocarcinoma cells; experiment: Cell proliferation by cell counting; format: cell-based, murine; settings: 350 μM nevirapine, after 120 h of exposure
Method: NIH/3T3 embryo fibroblasts and F9 teratocarcinoma cells were cultured in DMEM containing 10-20% fetal serum and two concentrations of efavirenz, i.e. 10 and 20 μM, diluted from a stock solution (10 mM) in 100% DMSO. Cells were plated at a density of 2-5×10^4 in 35 mm Petri dishes and exposed to efavirenz 5-6 hours later. Samples were withdrawn at specific times and cells were counted in efavirenz-exposed compared to parallel non-exposed cell cultures.

[5] = tested on: HT-29 colon carcinoma cells; experiment: Cell proliferation by cell counting; format: cell-based, human; settings: 350 μM nevirapine
From the text: as §1

[6] = tested on: Saos-2 osteosarcoma cells; experiment: Cell proliferation by cell counting; format: cell-based, human; settings: 350 μM nevirapine vs control cultures
Method: as §1
The effect of efavirenz was further tested in human HeLa adenocarcinoma and Saos-2 osteosarcoma cells. Both cell lines were cultured in the conditions described above (Example 6). To establish if prolonged exposure to the drug improved the effectiveness of growth inhibition, both cell lines were exposed to efavirenz in two subsequent cycles: during the 1st cycle cells were continuously exposed to 20 μM efavirenz for 5 days; cells were then diluted, reseeded again and the 2nd cycle exposure was initiated the following day with fresh drug. […] The inhibitory effect was time-dependent, since in both HeLa and Saos-2 cultures, the 1st cycle of exposure (5 days) yielded a 1.6- and 1.5-fold reduction, respectively, whereas a 5- and 4-fold reduction was obtained in the 2nd cycle (carried out until day 20 from the onset of exposure).

[7] = tested on: NIH/3T3; experiment: FACS cell cycle analysis; format: cell-based, murine; settings: after 72 h of nevirapine treatment
From the text: (§2) FIG. 3A. Cell cycle analysis in control and nevirapine-exposed cells. […] In the U343 glioma cell line, the cell cycle was separately analysed in the diploid cell fraction (representing about ⅔ of all cells) and in the remaining fraction (about ⅓) which develops aneuploidy. FIG. 3B. […] The filter was reprobed with anti-actin antibody to control equal loading (lower panel).

[8] = tested on: HT-29; experiment: FACS cell cycle analysis; format: cell-based, human; settings: after 72 h of nevirapine treatment
From the text: as §2

[9] = tested on: MCF-7; experiment: FACS cell cycle analysis; format: cell-based, human; settings: after 72 h of nevirapine treatment
From the text: as §2

[10] = tested on: U343 Mg; experiment: FACS cell cycle analysis; format: cell-based, human; settings: after 72 h of nevirapine treatment
From the text: as §2

[11] = tested on: teratocarcinoma F9 cells; experiment: Differentiation of F9 cells (morphology, collagen type IV immunofluorescence); format: cell-based, murine; settings: IF after 96 h
Method: After 96 h, samples were fixed and processed for IF of collagen type IV (α1) chain (FIG. 5c, FIG. 5g, FIG. 5k) and DAPI staining of nuclei (FIG. 5b, FIG. 5f, FIG. 5j); pictures are merged in FIG. 5d, FIG. 5h and FIG. 5l (100× objective).

[12] = tested on: NB4 cells; experiment: Morphological differentiation, Wright-Giemsa staining; format: cell-based, human; settings: five days of nevirapine treatment (400 μM)
[13] = tested on: Kasumi-1 cells; experiment: Differentiation of AML cells poorly sensitive to RA; format: cell-based, human; settings: nevirapine treatment
[14] = tested on: primary AML blasts; experiment: as above; format: cell-based, human; settings: nevirapine treatment
[15] = tested on: AML#1; experiment: Cytofluorimetric analysis of cell surface markers; format: cell-based, human; settings: AML#1, NEV 450 μM, 4 days
[16] = tested on: NB4 cells; experiment: Growth, viable cell count; format: cell-based, human; settings: NB4, Nev 350 μM, 4 days
[17] = tested on: HL60 cells; experiment: Growth, viable cell count; format: cell-based, human; settings: HL60, Nev 350 μM, 4 days
[18] = tested on: AML #1; experiment: Growth, viable cell count; format: cell-based, human; settings: AML #1, Nev 350 μM, 4 days
[19] = tested on: AML #2; experiment: Growth, viable cell count; format: cell-based, human; settings: AML #2, Nev 350 μM, 4 days
[20] = tested on: NB4 cells; experiment: NBT dye reduction assay; format: cell-based, human; settings: NB4, Nev 350 μM, 4 days
[21] = tested on: AML #2; experiment: NBT dye reduction assay; format: cell-based, human; settings: AML #2, Nev 350 μM, 4 days
[22] = tested on: ascite tumor; experiment: BALB/C mice inoculated with ascite tumor; format: in vivo; settings: nevirapine 1 mg/mouse/day intraperitoneally for seven days from day of inoculation; controls 5/5 tumor
Method: Procedure: 10 BALB/C mice were inoculated intraperitoneally (twice) with ascite tumor cells by injecting 0.2 ml of ascite withdrawn from an animal inoculated 8 days before. […] Mice were treated continuously with nevirapine for seven days.

For `Cc1ccnc2c1NC(=O)c1cccnc1N2C1CC1` [nevirapine, 5,11-dihydro-11-cyclopropyl-4-methyl-6H-dipyrido-[3,2-b:2′,3′-e][1,4]diazepin-6-one], the “RT activity, 112 bp-product” value [1] was “abolished”, the “development of early mouse embryos” value [2] was “early and effective developmental arrest” and the rate of proliferation [3] was “decreases the rate of proliferation in all cell lines”. The “reduction in the proliferation rate” value [4] was 5 fold, the “effectiveness of proliferation suppression compared with F9” value [5] was “comparable effectiveness” and the “exposure after which the growth rate begins to decrease” value [6] was 5 days. The “cells with a G0/G1 DNA content” value [7] was “accumulated”, the “cells with a G0/G1 DNA content” value [8] was “accumulated” and the “cells with a G0/G1 DNA content” value [9] was “accumulated”. The “cells with a G0/G1 DNA content” value [10] was “accumulated”, the “synthesis of collagen type IV(α1) chain” value [11] was “increased synthesis” and the morphology [12] was “myelomonocytic-like morphology was evident”. The “differentiation (morphological, functional, immunophenotypic)” value [13] was “triggering differentiation”, the “differentiation (morphological, functional, immunophenotypic)” value [14] was “triggering differentiation” and the “CD11b mean fluorescence intensity” value [15] was 5.9 AU. For the same compound, the “CD14 mean fluorescence intensity” value [15] was 8.8 AU, the “CD15 mean fluorescence intensity” value [15] was 15.6 AU and the “Viable cells N^0 × 10^5” value [16] was 2.6 ± 0.4 × 10^5. For the same compound, the “Viable cells N^0 × 10^5” value [17] was 4.7 ± 1.1 × 10^5, the “Viable cells N^0 × 10^5” value [18] was 0.6 ± 0.1 × 10^5 and the “Viable cells N^0 × 10^5” value [19] was 1.2 ± 0.1 × 10^5. For the same compound, the “NBT+ (%)” value [20] was 37.2 ± 1.4%, the “NBT (%)” value [21] was 68.1 ± 1.4% and the “treated animals remaining healthy with no evidence of tumor growth” value [22] was “⅗”.
